Literature values as cited in patent US20080089854A1, “Skin care compositions” (priority 2006, published 2008).

Experiments:
[1] = topical application
[2] = animal studies

Compound: O=C(O)CCCCCCCC(=O)O [azelaic acid]
- share of topically applied azelaic acid that is absorbed [1]: about 3.6%
- adverse effects on fertility or reproduction [2]: no adverse effects
